Results as given in patent US5574055A, “Oxazolidinone derivatives” (Hoffmann-La Roche Inc., priority 1993, dated 1996).
Where a name gives a salt, the structure may show the parent alone.

Each compound was assayed against monoamine oxidase (MAO) (assay: MAO inhibition in vitro (brain)). Settings: rat brain homogenate, 14C-5-HT or 14C-PEA as substrate (which one not given), pH 7.4, 37° C., 30 min pre-incubation, 10 min incubation.
Type: biochemical
Description: The MAO inhibiting activity of the compounds in accordance with the invention can be determined using standard methods.
The preparations to be tested were investigated in the in vitro test described hereinafter, which was based on the method of R. J. Wurtmann and J. A. Axelrod [Biochem. Pharmac. 12, 1439-41 (1963).
Isolated rat brains are homogenized in 0.1 molar potassium phosphate buffer (pH 7.4) in the ratio 1:9 (weight/volume), whereupon the homogenate is diluted with the same buffer in the ratio 1:4 (volume/volume) and stored at -20° C. A mixture of the following composition is used for the incubation:
100 μl of 1M phosphate buffer (pH 7.4);
100 μl of solubilizate of the substance to be tested in water or in aqueous dimethyl sulfoxide;
50 μl of rat brain homogenate; and as the substrate
50 μl of ^14 C-labelled serotonin (5-HT) or ^14 C-phenylethylamine (PEA), in each instance 100,000 decay per minute, corresponding to a final concentration of 2·10^-4 mol/l and, respectively, 2·10^-5 mol/l.
A pre-incubation at 37° C. is effected for 30 minutes prior to the addition of the substrate. The incubation (in the presence of the substrate) is likewise effected at 37° C. and lasts for 10 minutes. The reaction is stopped by the addition of 200 μl of 2N hydrochloric acid. In order to extract the deaminated product, the mixture is shaken for 10 minutes with 5 ml of diethyl ether or with 5 ml of n-heptane depending on whether 5-HT or PEA is used as the substrate, whereupon the mixture is centrifuged, the aqueous phase is frozen in a dry-ice bath and the organic phase is transferred into a counting glass.
The activity of the MAO in comparison to the control homogenates is determined on the basis of the β-counter values.
Under the above test conditions the activity is linear with respect to time and to the concentration of the homogenizate. The IC50 values were determined graphically as a log of the concentration-activity curve. The IC50 was defined as that concentration of a substance to be tested which reduces the activity of the MAO upon the substrate 5-HT or PEA by 50%.

Row | IC50 [nM] | SMILES
1 | 1 | COC[C@H]1CN(c2ccc([C@H]3CC[C@H](CC#N)CC3)cc2)C(=O)O1 [Example 50]
2 | 2 | COCC1CN(c2ccc([C@H]3CC[C@H](OCC#N)CC3)cc2)C(=O)O1 (mixture of isomers) [Example 66, (RS)-[trans-4-[4-(5-Methoxymethyl-2-oxo-oxazolidin-3-yl)-phenyl]-cyclohexyloxy]-acetonitrile]
3 | 1.6 | COC[C@H]1CN(c2ccc([C@H]3CC[C@H](OCC#N)CC3)cc2)C(=O)O1 [Example 63, (R)-[trans-4-[4-(5-Methoxymethyl-2-oxo-oxazolidin-3-yl)-phenyl]-cyclohexyloxy]-acetonitrile]
4 | 10 | COCC1CN(c2ccc(C3CCN(C(=O)/C=C/c4ccccc4)CC3)cc2)C(=O)O1 (racemic) [Example 59, (RS)-4-[4-(5-Methoxymethyl-2-oxo-oxazolidin-3-yl)-phenyl]-1-(1-oxo-3-phenyl-2,(E)-propenyl)-piperidine]
5 | 74 | COCC1CN(c2ccc([C@H]3CC[C@H](OCCN)CC3)cc2)C(=O)O1 (stereo partly drawn) [Example 68, (RS)-3-[trans-4-[4-(5-Methoxymethyl-2-oxo-oxazolidin-3-yl)-phenyl]-cyclohexyloxy]ethanamine.HCl]
6 | 33 | COC[C@H]1CN(c2ccc([C@H]3CC[C@H](OCCCN)CC3)cc2)C(=O)O1 [Example 71, (R)-3-[trans-4-(3-Amino-propoxy)-cyclohexyl]-phenyl]-5-methoxymethyl-oxazolidin-2-one hydrochloride]
7 | 0.9 | COCC1CN(c2ccc([C@H]3CC[C@H](CC#N)CC3)cc2)C(=O)O1 (mixture of isomers) [Example 49, (RS)-[trans-4-[4-(5-Methoxymethyl-2-oxo-oxazolidin-3-yl)-phenyl]-cyclohexyl]-acetonitrile]

Continued, compound first:

Row | SMILES | IC50 [nM]
8 | COC[C@H]1CN(c2ccc(OCC[C@@H](O)C(F)(F)F)cc2)C(=O)O1 [Befloxaton, reference compound] | 1.9
9 | COCC1CN(c2ccc([C@H]3CC[C@H](OCCC#N)CC3)cc2)C(=O)O1 (mixture of isomers) [Example 30, (RS)-3-[trans-4-[4-(5-Methoxymethyl-2-oxo-Oxazolidin-3-yl)-phenyl]cyclohexyloxy]-propionitrile] | 5
10 | COCC1CN(c2ccc([C@H]3CC[C@H](OC(C)=O)CC3)cc2)C(=O)O1 (mixture of isomers) [Example 33, Acetic acid (RS)-trans-4-[4-(5-methoxymethyl-2-oxo-oxazolidin-3-yl)-phenyl]-cyclohexylester] | 10
11 | COC[C@H]1CN(c2ccc([C@H]3CC[C@H](O)CC3)cc2)C(=O)O1 [Example 15, (R)-3-[4-(trans-4-Hydroxy-cyclohexyl)-phenyl]-5-methoxymethyl-oxazolidin-2-one] | 8.5
12 | O=C1OC(CO)CN1c1ccc(C2CCCCC2)cc1 (racemic) [Example 1, (RS)-3-(4-Cyclohexyl-phenyl)-5-hydroxymethyl-oxazolidin-2-one] | 8.5
13 | COCC1CN(c2ccc(C3CCC(C)(O)CC3)cc2)C(=O)O1 (stereo not drawn) [Example 39, (RS)-3-[4-(cis or trans-4-Hydroxy-4-methyl-cyclohexyl)-phenyl]-5-methoxymethyl-oxazolidin-2-one] | 4
14 | COCC1CN(c2ccc(C3CCC(=O)CC3)cc2)C(=O)O1 (racemic) [Example 7, (RS)-3-[4-(4-Oxo-cyclohexyl)-phenyl]-5-methoxymethyl-oxazolidin-2-one] | 10
15 | COCC1CN(c2ccc(C3CCCCC3)cc2)C(=O)O1 (racemic) [Example 2, (RS)-3-(4-Cyclohexyl-phenyl)-5-methoxymethyl-oxazolidin-2-one] | 2
16 | COCC1CN(c2ccc(C3CC4C=CC3C4)cc2)C(=O)O1 (stereo not drawn) [Example 18, 3-[(1RS,2SR,4RS)-4-Bicyclo[2.2.1]hept-5-en-2-yl-phenyl]-5-methoxymethyl-oxazolidin-2-one (R:S=1:1)] | 9
17 | COC[C@H]1CN(c2ccc(C3CCCCC3)cc2)C(=O)O1 [Example 6, (R)-3-(4-Cyclohexyl-phenyl)-5-methoxymethyl-oxazolidin-2-one] | 0.1
18 | COCC1CN(c2ccc([C@H]3CC[C@H](O)CC3)cc2)C(=O)O1 (mixture of isomers) [Example 8, (RS)-3-[4(trans-4-Hydroxy-cyclohexyl)-phenyl]-5-methoxymethyl-oxazolidin-2-one] | 8.4
19 | COC[C@H]1CN(c2ccc(C3CCC(=O)CC3)cc2)C(=O)O1 [Example 14, (R)-3-[4-(4-Oxo-cyclohexyl)-phenyl]-5-methoxymethyl-oxazolidin-2-one] | 1
20 | COCC1CN(c2ccc(C3CCC(CO)CC3)cc2)C(=O)O1 (racemic) [Example 38, (RS)-3-[4-(Cis- and trans-4-Hydroxymethyl-cyclohexyl)-phenyl]-5-methoxymethyl-oxazolidin-2-one] | 3
21 | COCC1CN(c2ccc([C@H]3CC[C@H](OC)CC3)cc2)C(=O)O1 (stereo partly drawn) [Example 16] | 6
